# Test results: patent US6653300B2, “Pyrazole compounds useful as protein kinase inhibitors” (Vertex Pharmaceuticals Incorporated, priority 2000, dated 2003)
# Several values for one entry are separate records, joined by “and”; a condition that tells them apart may be missing. Equal entries are not always repeated.
# How the values were obtained:
# GSK-3β (AA 1-420) = target: T1, GSK-3β (AA 1-420) (Homo sapiens, UniProt P49841); assay: Ki determination for the inhibition of GSK-3 (coupled enzyme system); format: biochemical; settings: 20 μM ATP, 20 nM GSK-3β, 30° C.
# T1 construct: GSK-3β (AA 1-420)
# Outline: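 GSK-3β (AA 1-420, 20 nM) was run in a pyruvate kinase/LDH-coupled NADH assay in 100 mM HEPES pH 7.5, 10 mM MgCl2, 25 mM NaCl, 1 mM DTT, 1.5% DMSO, with 300 μM phosphopeptide substrate. Compound (0.002–30 μM) was preincubated 10 min at 30° C, then 20 μM ATP was added.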
# Aurora-2 = target: T2, Aurora-2 (Homo sapiens, UniProt O14965); assay: Ki determination for the inhibition of Aurora-2 (coupled enzyme assay); format: biochemical; settings: 70 nM Aurora-2, 30° C.
# T2 sequence (O14965 1-403): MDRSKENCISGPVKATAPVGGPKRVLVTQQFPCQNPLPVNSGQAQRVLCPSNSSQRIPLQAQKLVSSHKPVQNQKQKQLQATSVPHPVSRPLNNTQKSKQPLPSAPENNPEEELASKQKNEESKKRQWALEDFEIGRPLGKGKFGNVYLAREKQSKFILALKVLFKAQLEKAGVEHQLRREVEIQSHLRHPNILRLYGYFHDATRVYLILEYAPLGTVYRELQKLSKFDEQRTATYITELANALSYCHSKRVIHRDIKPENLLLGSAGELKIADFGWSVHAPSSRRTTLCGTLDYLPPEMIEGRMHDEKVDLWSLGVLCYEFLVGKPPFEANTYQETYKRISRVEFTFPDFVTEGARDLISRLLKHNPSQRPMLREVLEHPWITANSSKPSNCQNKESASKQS
# Outline: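 Ki came from reaction rates plotted against inhibitor concentration, with rates taken as A340 decrease over 5 min at 30° C. Enzyme (70 nM final) was added after 10 min compound preincubation; stock buffer held […], 800 μM LRRASLG, PK/LDH coupling, pH 7.5.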
# T1 sequence (P49841 whole entry, the tested form may be a part): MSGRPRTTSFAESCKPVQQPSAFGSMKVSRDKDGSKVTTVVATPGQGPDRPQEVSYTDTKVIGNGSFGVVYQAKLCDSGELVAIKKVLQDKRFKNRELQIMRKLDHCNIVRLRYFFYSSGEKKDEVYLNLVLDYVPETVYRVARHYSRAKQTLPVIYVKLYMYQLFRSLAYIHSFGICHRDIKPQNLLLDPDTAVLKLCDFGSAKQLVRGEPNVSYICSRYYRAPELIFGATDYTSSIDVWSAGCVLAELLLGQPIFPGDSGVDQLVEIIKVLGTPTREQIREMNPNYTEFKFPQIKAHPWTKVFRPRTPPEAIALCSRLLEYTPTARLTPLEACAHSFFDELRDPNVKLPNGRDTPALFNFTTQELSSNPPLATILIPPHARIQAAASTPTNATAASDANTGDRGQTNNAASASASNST
Compound,Ki (GSK-3β (AA 1-420)),Ki (Aurora-2) [nM],melting point
"Cc1cccc(Nc2nc(Nc3cc(C)[nH]n3)c3ccccc3n2)c1 [IIc-50, [2-(3-Methylphenylamino)-quinazolin-4-yl]-(5-methyl-2H-pyrazol-3-yl)-amine]",100 to 1000 nM,< 100,240 to 242 °C
"Cc1cc(Nc2nc(Nc3ccc(NC(=O)OC(C)(C)C)cc3)nc3ccccc23)n[nH]1 [IIc-60, [2-(4-tert-Butoxycarbonylamino-phenylamino)-quinazolin-4-yl]-(5-methyl-2H-pyrazol-3-yl)-amine]",1000 to 7000 nM,< 100,238 to 242 °C
"Cc1cc(Nc2nc(NC3CCCCC3)nc3ccccc23)n[nH]1 [IIc-6, (2-Cyclohexylamino-quinazolin-4-yl)-(5-methyl-2H-pyrazol-3-yl)-amine]",< 100 nM and 100 to 1000 nM,< 100,280 °C (dec.)
"Cc1cc(Nc2nc(Nc3ccc(CC(=O)O)c(C)c3)nc3ccccc23)n[nH]1 [IIc-65, [2-(4-Carboxymethyl-3-methylphenylamino)-quinazolin-4-yl]-(5-methyl-2H-pyrazol-3-yl)-amine]",100 to 1000 nM,< 100,245 °C (dec.)
"Cc1cc(Nc2nc(Nc3cccc(CO)c3)nc3ccccc23)n[nH]1 [IIc-16, [2-(3-Hydroxymethylphenylamino)-quinazolin-4-yl]-(5-methyl-2H-pyrazol-3-yl)-amine]",100 to 1000 nM,< 100,> 250 °C
"Cc1cc(Nc2nc(Sc3nccn3C)nc3ccccc23)n[nH]1 [IIa-10, [2-(1-Methylimidazol-2-ylsulfanyl)-quinazolin-4-yl]-(5-methyl-2H-pyrazol-3-yl)-amine]",1000 to 7000 nM,1000 to 10000,255 to 256 °C
"c1ccc2cc(Sc3nc4c(c(Nc5cc(C6CC6)[nH]n5)n3)CCCC4)ccc2c1 [IIa-29, (5-Cyclopropyl-2H-pyrazol-3-yl)-[2-(naphthalen-2-ylsulfanyl)-5,6,7,8-tetrahydroquinazolin-4-yl-]-amine]",100 to 1000 nM,< 100,244 °C
"c1ccc2c(c1)CC(Nc1nc(Nc3cc(C4CC4)[nH]n3)c3ccccc3n1)C2 [IIc-49, (5-Cyclopropyl-2H-pyrazol-3-yl)-[2-(indan-2-ylamino)-quinazolin-4-yl]-amine]",100 to 1000 nM,< 100,233 to 234 °C
"COC(=O)c1ccc(Sc2nc(Nc3cc(C4CC4)[nH]n3)c3ccccc3n2)cc1 [IIa-35, (5-Cyclopropyl-2H-pyrazol-3-yl)-[2-(4-methoxycarbonylphenylsulfanyl)-quinazolin-4-yl]-amine]",100 to 1000 nM,< 100,245 to 246 °C
"Cc1cc(Nc2nc(Nc3cccc(-c4ccccc4)c3)nc3ccccc23)n[nH]1 [IIc-63, [2-(Biphenyl-3-ylamino)-quinazolin-4-yl]-(5-methyl-2H-pyrazol-3-yl)-amine]",100 to 1000 nM,< 100,206 to 207 °C
"O=C(O)c1cccc(Sc2nc(Nc3cc(C4CC4)[nH]n3)c3ccccc3n2)c1 [IIa-26, [2-(3-Carboxyphenylsulfanyl)-quinazolin-4-yl]-(5-cyclopropyl-2H-pyrazol-3-yl)-amine]",< 100 nM,< 100,> 300 °C
"c1ccc2c(Nc3cc(C4CC4)[nH]n3)nc(NCCC3CCCCC3)nc2c1 [IIc-29, [2-(2-Cyclohexylethylamino)-quinazolin-4-yl]-(5-cyclopropyl-2H-pyrazol-3-yl)-amine]",100 to 1000 nM,< 100,> 250 °C
"CCc1cccc(Nc2nc(Nc3cc(C)[nH]n3)c3ccccc3n2)c1 [IIc-55, [2-(3-Ethylphenylamino)-quinazolin-4-yl]-(5-methyl-2H-pyrazol-3-yl)-amine]",100 to 1000 nM,< 100,238 to 239 °C
"Cc1cc(Nc2nc(Nc3ccccc3CCO)nc3ccccc23)n[nH]1 [IIc-14, {2-[2-(2-Hydroxyethyl)phenylamino]-quinazolin-4-yl}-(5-methyl-2H-pyrazol-3-yl)-amine]",100 to 1000 nM,100 to 1000,222 °C
"Cc1cc(Nc2nc(Sc3cccc(Br)c3)nc3ccccc23)n[nH]1 [IIa-47, [2-(3-Bromophenylsulfanyl)-quinazolin-4-yl]-(5-methyl-2H-pyrazol-3-yl)-amine]",< 100 nM,< 100,280 to 281 °C
"c1ccc(CCCNc2nc(Nc3cc(C4CC4)[nH]n3)c3ccccc3n2)cc1 [IIc-47, (5-Cyclopropyl-2H-pyrazol-3-yl)-[2-(3-phenylprop-1-ylamino)-quinazolin-4-yl]-amine]",100 to 1000 nM,< 100,189 °C
"Cc1cc(Nc2nc(Nc3cccc(O)c3)nc3ccccc23)n[nH]1 [IIc-17, [2-(3-Hydroxyphenylamino)-quinazolin-4-yl]-(5-methyl-2H-pyrazol-3-yl)-amine]",100 to 1000 nM,< 100,> 250 °C
"Cc1cc(Nc2nc(Sc3ccc(F)cc3F)nc3ccccc23)n[nH]1 [IIa-12, [2-(2,4-Difluorophenylsulfanyl)-quinazolin-4-yl]-(5-methyl-2H-pyrazol-3-yl)-amine]",< 100 nM,< 100,256 to 258 °C
"Cc1cc(Nc2nc(Nc3ccc4c(c3)OCCO4)nc3ccccc23)n[nH]1 [IIc-7, [2-(2,3-Dihydrobenzo[1,4]dioxin-6-ylamino)-quinazolin-4-yl]-(5-methyl-2H-pyrazol-3-yl)-amine]",100 to 1000 nM,< 100,> 250 °C
"Cc1cc(Nc2nc(Sc3ccc(NC(=O)CCCN4CCOCC4)cc3)nc3ccccc23)n[nH]1 [IIa-64, (5-Methyl-2H-pyrazol-3-yl)-{2-[4-(4-morpholin-4-yl-butyrylamino)-phenylsulfanyl]-quinazolin-4-yl}-amine]",1000 to 7000 nM,< 100,240 to 243 °C
"Cc1cc(Nc2nc(Sc3ccc(C(=O)O)cc3)nc3ccccc23)[nH]n1 [IIa-43, [2-(4-Carboxyphenylsulfanyl)-quinazolin-4-yl]-(5-methyl-2H-pyrazol-3-yl)-amine]",< 100 nM,< 100,263 to 265 °C
"Cc1cc(Nc2nc(Nc3ccc(C)c(C)c3)nc3ccccc23)n[nH]1 [IIc-54, [2-(3,4-Dimethylphenylamino)-quinazolin-4-yl]-(5-methyl-2H-pyrazol-3-yl)-amine]",100 to 1000 nM,< 100,249 to 251 °C
"O=C(O)c1cccc(Nc2nc(Nc3cc(C4CC4)[nH]n3)c3ccccc3n2)c1 [IIc-40, [2-(3-Carboxyphenylamino)-quinazolin-4-yl]-(5-cyclopropyl-2H-pyrazol-3-yl)-amine]",100 to 1000 nM,< 100,298 to 302 °C
"c1ccc2c(Nc3cc(C4CC4)[nH]n3)nc(Nc3ccc(N4CCOCC4)cc3)nc2c1 [IIc-52, (5-Cyclopropyl-2H-pyrazol-3-yl)-{2-[4-(morpholin-1-yl)phenylamino]-quinazolin-4-yl}-amine]",100 to 1000 nM,< 100,275 to 276 °C
"CC(=O)Nc1ccc(Nc2nc(Nc3cc(C)[nH]n3)c3ccccc3n2)cc1C [IIc-48, [2-(4-acetamido-3-methylphenylamino)-quinazolin-4-yl]-(5-methyl-2H-pyrazol-3-yl)-amine]",100 to 1000 nM,< 100,251 °C
"COc1ccc(Oc2nc(Nc3cc(C)[nH]n3)c3ccccc3n2)cc1OC [IIb-7, [2-(3,4-Dimethoxyphenoxy)-quinazolin-4-yl]-(5-methyl-2N-pyrazol-3-yl)-amine]",100 to 1000 nM,< 100,277 to 278 °C
"Cc1cc(Nc2nc(Sc3ccc(N)cc3)nc3ccccc23)n[nH]1 [IIa-62, [2-(4-Amino-phenylsulfanyl)-quinazolin-4-yl]-(5-methyl-2H-pyrazol-3-yl)-amine]",100 to 1000 nM,< 100,> 300 °C
"COC(=O)c1ccc(Sc2nc(Nc3cc(C)[nH]n3)c3ccccc3n2)cc1 [IIa-42, [2-(4-Methoxycarbonylphenylsulfanyl)-quinazolin-4-yl]-(5-methyl-2H-pyrazol-3-yl)-amine]",100 to 1000 nM,< 100,257 to 260 °C
"CCc1ccccc1Sc1nc(Nc2cc(C)[nH]n2)c2ccccc2n1 [IIa-5, [2-(2-Ethylphenylsulfanyl)-quinazolin-4-yl]-(5-methyl-2H-pyrazol-3-yl)-amine]",100 to 1000 nM,< 100,205 to 208 °C
